Read-outs that look alike come from different tables or passages of the source. Where only a bound is given, the exact number is not on record here.

For the assay, the system named is PC-3 castration-resistant prostate cancer cell line. Put plainly: Clonogenic assay (methylcellulose colony assay). The conditions noted are these: for inhibition at 3 µM / IC50 / inhibition at 1 µM / inhibition at 10 µM: Homo sapiens. It is filed as cell-based, human. How it is done:
(§1) Clonogenic Assays. The cytotoxicity of cinchona alkaloids was tested against clonogenic human cancer cells was examined using a methylcellulose colony assay system, as described previously (Uckun, F. M. et al., J. Exp. Med., 1986, 163: 347-68; Uckun, F. M. et al., J. Clin. Invest., 1993, 91: 1044-1051). In brief, cells (10^5 cells/ml in RPMI-10% fetal bovine serum) were treated for 8 hours at 37° C. with cinchona alkaloids at varying concentrations. After treatment, cells were washed twice, and resuspended in clonogenic medium consisting of RPMI 1640 supplemented with 0.9% methylcellulose, 10% fetal bovine serum, and 50 μM 2-mercaptoethanol. Cells were plated at 5×10^4 cells/ml in RPMI 1640 supplemented with 10% fetal bovine serum, and 0.9% methylcellulose in duplicate 35-mm Petri dishes, and cultured for 7 days at 37° C. in a humidified 5% CO2 incubator. Subsequently, cancer cell colonies were enumerated on a grid using an inverted phase-contrast microscope of high optical resolution. Results were expressed as the % Inhibition=[1−(Number of colonies in compound-treated test cultures/Number of colonies in vehicle-treated control cultures)]×100.
as §1, with “cytotoxicity of synthetic dimeric cinchona alkaloids” for “cytotoxicity of cinchona alkaloids”

By inhibition is commonly meant the drop in the measured response relative to a control, in per cent. The term IC50 denotes the midpoint of a concentration-inhibition curve. `CCC1(O)CCN2CCC1C[C@@H]2[C@@H](Oc1nnc(O[C@H](c2ccnc3ccc(OC)cc23)[C@@H]2N3CC[C@H]4C(O)(CC)CC243)c2ccccc12)c1ccnc2ccc(OC)cc12` (mixture of isomers) [ARES-BI-C001453]: the inhibition at 3 µM was more than 99% (PC-3, PC3 cells, 3 μM, read-out: inhibition of clonogenic growth); 99.7% (PC-3 EXP#1, 3 μM, read-out: % Inhibition); 99.4% (PC-3 EXP#2, 3 μM, read-out: % Inhibition). In addition, the IC50 by setting is: (PC-3, PC3 cells, read-out: estimated IC50, clonogenic growth) 129 nM; (PC-3, two independent experiments, non-linear regression, read-out: IC50, inhibition of clonogenic growth) 56 nM. Further, the inhibition at 1 µM reads like this: (PC-3 EXP#1, 1 μM) 91.9%; (PC-3 EXP#2, 1 μM) 95.6%. The inhibition at 10 µM was found to be 99.5% (PC-3 EXP#1, 10 μM) and 99.4% (PC-3 EXP#2, 10 μM). Also, the “Colonies/5 × 10^4 Cells” value was 15.0 Colonies/5 × 10^4 Cells (PC-3 EXP#1, 1 μM); 0.5 Colonies/5 × 10^4 Cells (PC-3 EXP#1, 3 μM); 1.0 Colonies/5 × 10^4 Cells (PC-3 EXP#1, 10 μM); 7.0 Colonies/5 × 10^4 Cells (PC-3 EXP#2, 1 μM); 1 Colonies/5 × 10^4 Cells (PC-3 EXP#2, 3 μM); 1 Colonies/5 × 10^4 Cells (PC-3 EXP#2, 10 μM).

(Values after patent US11649232B2, “Synthetic dimeric cinchona alkaloids against cancer” (Ares Pharmaceuticals, LLC, priority 2021, dated 2023).)
